Source: BindingDB's records for doi:10.1021/bi7018282 (Cornell University, 2008)
pKd: −log10 of the molar value.

Target: T1, Thiamine-binding periplasmic protein (Escherichia coli (strain K12), UniProt P31550)
T1 sequence (P31550 whole entry): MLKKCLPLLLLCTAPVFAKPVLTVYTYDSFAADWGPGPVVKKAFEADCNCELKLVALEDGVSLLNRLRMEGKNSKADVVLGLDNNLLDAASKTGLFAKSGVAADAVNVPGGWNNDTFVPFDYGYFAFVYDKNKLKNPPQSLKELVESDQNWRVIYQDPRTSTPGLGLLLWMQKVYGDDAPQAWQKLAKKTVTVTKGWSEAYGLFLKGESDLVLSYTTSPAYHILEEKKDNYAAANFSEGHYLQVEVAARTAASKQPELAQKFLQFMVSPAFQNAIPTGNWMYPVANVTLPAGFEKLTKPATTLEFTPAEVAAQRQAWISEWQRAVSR
Assay: Titration Assay
Description: the kd for ThOH, ThMP and ThDP were determined using titration experiments in which the change in the intrinsic protein fluorescence was monitored as a function of ligand concentration.

Structure (SMILES)	pKd
Cc1ncc(C[n+]2csc(CCO[P@](=O)(O)OP(=O)(O)O)c2C)c(N)n1 [ThDP]	8.13
Cc1ncc(C[n+]2csc(CCO)c2C)c(N)n1 [Vitamin B 1]	8.42
